≈ marks a conversion by molar mass, not a printed value.
How the values were obtained:
[1] = system: SK-OV-3; test: cells; settings: Homo sapiens, SK-OV-3, read-out: Absolute EC50, growth inhibition
[2] = Microsomal intrinsic clearance; settings: mouse, mouse microsomes
[3] = system: RKO; test: cells; settings: Homo sapiens, read-out: Absolute EC50, growth inhibition
[4] = system: γH2AX foci in A549 cells; test: γH2AX foci, Cellomics ArrayScan high-content microscopy; assay type: cell-based, human; settings: 50 μM, 24 h after exposure to IR
Source text: We tested this prediction by monitoring RAD51 foci formation after the exposure of A549 non-small cell lung carcinoma (NSCLC) cells to ionizing radiation (IR), using a robust cell-based assay based on high-content microscopy with the Cellomics ArrayScan V^TI, to objectively enumerate RAD51 foci ([Jeyasekharan et al., 2013]). IR-induced DNA breakage was monitored in the same experiment by enumerating foci containing γH2AX, a phosphorylated form of histone H2AX that is formed at DNA breaks ([Rogakou et al., 1998]).
For detection of γH2AX foci in A549 cells, 10,000 cells/well (1x10^5 cells/ml) were seeded in 100 μl and left to grow overnight before treatment with compound. Cells were subsequently exposed to compounds and either 3 Gy ionising radiation or mock treated (left on the bench at room temperature). Staining protocol was identical as for RAD51 foci but anti-phospho γH2AX primary mouse monoclonal antibody was used (Millipore, cat#05-636) at 1:2000 dilution. Image analysis was done using Cellomics software.

[5] = Aqueous solubility
[6] = system: Mia-pa-ca2; test: cells; settings: Homo sapiens, MIA PaCa-2, read-out: Absolute EC50, growth inhibition
[7] = system: PANC1; test: cells; settings: Homo sapiens, PANC-1, read-out: Absolute EC50, growth inhibition
[8] = system: RAD51 clusters in EUFA423 cells; test: RAD51 molecular clustering by SMLM (d-STORM); assay type: cell-based, human; settings: 25 μM, 3 h after 3 Gy IR
Protocol: (§1) […]; [Howlett et al., 2002]). We developed, as isogenic controls, EUFA423 cells complemented by the expression of full-length BRCA2 (EUFA423 + BRCA2) ([Hattori et al., 2011]). […]. […] […].
(§2) Single Molecule Localization Microscopy (SMLM) was achieved by direct Stochastic Optical Reconstruction Microscopy (d-STORM) as described ([Haas et al., 2018]). Briefly, samples were prepared for one colour 2D d-STORM utilizing a buffer containing 100 mM MEA-HCL (Sigma, M6500), 10% glucose (Sigma), 0.5 mg/ml glucose oxidase (Sigma, G2133) and 40 μg/ml catalase (Sigma, C100) in water at pH 7.5. Samples were imaged by direct STORM at room temperature in sealed 8-well ibidi μ-slides utilizing an inverted N-STROM microscope (Nikon Ti, Japan) equipped with an Apochromat 100x/1.49 NA oil immersion objective. Samples were let to equilibrate for at least 30 minutes before imaging to minimize thermal drift. Images were then acquired with highly inclined illumination and focus was maintained by hardware autofocusing (Nikon Perfect Focus System). AlexaFluor647 was first pumped in its dark state using the 640 nm laser line at maximum power (~150 mW) and then imaged continuously with a power density of ~3 kW/cm^2. Data were acquired in ‘streaming mode’ with a field-of-view (FOV) of 256x256 pixels (160 nm pixel size), at 65 frames per second for 25,000 frames with an EMCCD camera (iXon Ultra DU897, Andor). The sparsity of single molecules per frame was controlled using ~0.6 mW of the 405 nm laser. Images of AlexaFluor647 were acquired with a Quad Band Set for TIRF applications (Chroma, TRF89901, ET – 405/488/561/640 nm) and the ET645/75 m emission filter (Chroma).
(§3) Single molecule data was analysed using the Grafeo program available at https://github.com/inatamara/Grafeo-dSTORM-analysis-, as described in ([Haas et al., 2018]). Briefly, all localizations with fewer than 1,000 detected photons or localization precision lower than 20 nm were discarded. Next, the data was filtered using 2D Voronoi diagrams, setting the minimum density (an inverse of Voronoi polygon VP size) to 5∗10^-5 nm^-2. […]

[9] = system: RAD51 clusters in EUFA423 + BRCA2 cells; test: RAD51 molecular clustering by SMLM (d-STORM); assay type: cell-based, human; settings: 25 μM
Protocol: as §1, §2, §3

[10] = target: T1, CYP450 2C19 (Homo sapiens, UniProt P33261); test: CYP450 inhibition; assay type: in vitro ADME
T1 construct: Cyprotex (contract data)

[11] = system: K562; test: cells; settings: Homo sapiens, K562, read-out: Absolute EC50, growth inhibition

T1 sequence (P33261 whole entry): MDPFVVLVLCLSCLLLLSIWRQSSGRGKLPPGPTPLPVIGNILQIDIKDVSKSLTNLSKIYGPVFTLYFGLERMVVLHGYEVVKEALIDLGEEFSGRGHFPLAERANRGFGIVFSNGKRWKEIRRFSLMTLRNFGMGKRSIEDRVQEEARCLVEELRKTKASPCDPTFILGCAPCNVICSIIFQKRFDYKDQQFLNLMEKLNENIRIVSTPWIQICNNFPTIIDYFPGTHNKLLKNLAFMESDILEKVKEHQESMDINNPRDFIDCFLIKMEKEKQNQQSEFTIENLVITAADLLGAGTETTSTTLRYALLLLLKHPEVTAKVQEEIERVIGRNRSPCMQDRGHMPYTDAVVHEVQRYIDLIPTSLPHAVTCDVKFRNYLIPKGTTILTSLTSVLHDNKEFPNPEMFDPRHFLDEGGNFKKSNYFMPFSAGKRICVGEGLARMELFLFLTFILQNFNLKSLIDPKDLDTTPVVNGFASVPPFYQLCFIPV

In the case of `COc1ccc([C@H](C)NC(=O)[C@@H]2C[C@@H](O)CN2C(=O)CNC(=O)c2ccc3cc(F)ccc3n2)c(Cl)c1` [CAM833, N-(2-((2S,4R)-2-(((S)-1-(2-chloro-4-methoxyphenyl)ethyl)carbamoyl)-4-hydroxypyrrolidin-1-yl)-2-oxoethyl)-6-fluoroquinoline-2-carboxamide], the EC50 [1] is reported as 105 µM, the half-life [2] is reported as 43.1 min and the microsomal CLint [2] is reported as 32.2 ± 2.99 µL/min/mg. The EC50 [3] was 63.5 µM, the “increase of γH2AX foci formation compared with control-treated cells” value [4] was “approximately 4 fold” and the solubility ([5]; pH 7.4 buffer, pH 7.4, aqueous buffer, thermodynamic from solid) was 7.75 µg/mL (≈ 14.7 µM). The “solubility (in words)” value ([5]; summary of Table S1) was “moderate”, the EC50 [6] was 68.6 µM and the EC50 [7] was 96 µM. The “RAD51 accumulation in damage-induced foci (in words)” value [8] was “significantly reduces”, the “formation of elongated RAD51 filaments (in words)” value ([9]; 3 Gy IR) was “prevents the formation of elongated filaments” and the “RAD51 accumulation in damage-induced foci (in words)” value ([9]; 3 h after 3 Gy IR) was “significantly reduces”. For the same compound, the IC50 [10] was > 25 µM and the EC50 [11] was 137 µM.

Source: PMC8219027, “A small-molecule inhibitor of the BRCA2-RAD51 interaction modulates RAD51 assembly and potentiates DNA damage-induced cell death” (Cell Chemical Biology, 2021)
